Columns and labels:
[1] = system: Human immunodeficiency virus 1; assay: Antiviral activity against wild type HIV-1; format: functional, organism-based
[2] = target: Human immunodeficiency virus type 1 protease (Human immunodeficiency virus 1, UniProt Q72874); assay: (§1) Inhibition of wild type HIV1 protease expressed in Escherichia coli using Arg-Glu (EDANS)-Ser-Gln-Asn-Tyr-Pro-Ile-Val-Gln-Lys(DABCYL)-Arg as substrate preincubated for 20 to 30 mins followed by substrate addition and measured for 10 mins by FRET assay
[3] = system: Human immunodeficiency virus 1; assay: Antiviral activity against VSV-G pseudotyped HIV1 NL4-3 in human TZM-bl cells infected with virus particles extracted from human SupT1 cells infected with HIV1 NL4-3 at 10 uM incubated for 48 hrs assessed as inhibition of late stage viral infection by luciferase assay relative to control; format: functional; conditions: Human immunodeficiency virus 1, NL4-3, TZM
[4] = system: Human immunodeficiency virus 1; assay: Antiviral activity against VSV-G pseudotyped HIV1 NL4-3 infected in human SupT1 cells assessed as inhibition of early stage viral infection at 10 uM after 48 hrs by luciferase assay relative to control; format: functional; conditions: Human immunodeficiency virus 1, NL4-3, SUP-T1, 48 h
[5] = system: Human immunodeficiency virus 1; assay: (§2) Antiviral activity against VSV-G pseudotyped darunavir-resistant HIV1 NL4-3 in human SupT1 cells infected with supernatants of virus particles extracted from human 293T cells infected with darunavir-resistant HIV1 NL4-3 incubated for 48 hrs assessed as inhibition of late stage viral infection by single-round infection based luciferase reporter assay; format: functional, organism-based; conditions: Human immunodeficiency virus 1, NL4-3, 48 h
[6] = system: Human immunodeficiency virus 1; assay: as §2, with “wild type” for “darunavir-resistant”; format: functional, organism-based; conditions: Human immunodeficiency virus 1, NL4-3, 48 h
[7] = target: Human immunodeficiency virus type 1 protease (Human immunodeficiency virus 1) (UniProt Q72874); assay: as §1, with “Potency index, ratio of Darunavir Ki to compound Ki for inhibition” for “Inhibition”
[8] = system: Human immunodeficiency virus 1; assay: Potency index, ratio of Darunavir IC50 to compound IC50 for antiviral activity against wild type HIV-1; format: functional

Structure (SMILES)	IC50 [1] [nM]	Ki [2] [nM]	also measured
COc1ccc(S(=O)(=O)N(CC(C)C)C[C@@H](O)[C@H](Cc2ccccc2)NC(=O)CN2CCO[C@H](C)C2)cc1	63.6	14.2	–
CC(C)CN(C[C@@H](O)[C@H](Cc1ccccc1)NC(=O)CN1CCO[C@@H](C)C1)S(=O)(=O)c1ccc(C(F)(F)F)cc1	419	93.9	–
CC(C)CN(C[C@@H](O)[C@H](Cc1ccccc1)NC(=O)OCCN1CCOCC1)S(=O)(=O)c1ccc(C(F)(F)F)cc1	9.92	2.22	–
CC(C)CN(C[C@@H](O)[C@H](Cc1ccccc1)NC(=O)CN1CCO[C@@H](C)C1)S(=O)(=O)c1ccc(N)cc1	127	28.4	–
CC(C)CN(C[C@@H](O)[C@H](Cc1ccccc1)NCCN1CCOCC1)S(=O)(=O)c1ccc(C(F)(F)F)cc1	1500	336	–
COc1ccc(S(=O)(=O)N(CC(C)C)C[C@@H](O)[C@H](Cc2ccccc2)NC(=O)N2CCOCC2)cc1	0.95	0.21	inhibition at 10 µM [3]: 91%; inhibition at 10 µM [4]: 12%; EC50 [5]: 4900 nM; EC50 [6]: 2000 nM; Ratio Ki [7]: 2; Ratio IC50 [8]: 2
COc1ccc(S(=O)(=O)N(CC(C)C)C[C@@H](O)[C@H](Cc2ccccc2)NC(=O)CN2CCO[C@@H](C)C2)cc1	25.5	5.71	–
CC(C)CN(C[C@@H](O)[C@H](Cc1ccccc1)NCC(=O)N1CCOCC1)S(=O)(=O)c1ccc(N)cc1	102	22.8	–
CC(C)CN(C[C@@H](O)[C@H](Cc1ccccc1)NC(=O)CN1CCO[C@H](C)C1)S(=O)(=O)c1ccc(N)cc1	84.6	18.9	–
COc1ccc(S(=O)(=O)N(CC(C)C)C[C@@H](O)[C@H](Cc2ccccc2)NC(=O)OCCN2CCOCC2)cc1	0.41	0.09	inhibition at 10 µM [3]: 94%; inhibition at 10 µM [4]: 5%; EC50 [5]: 9500 nM; EC50 [6]: 1200 nM; Ratio Ki [7]: 4; Ratio IC50 [8]: 4
COc1ccc(S(=O)(=O)N(CC(C)C)C[C@@H](O)[C@H](Cc2ccccc2)NC[C@H](O)CN2CCOCC2)cc1	1500	750	–
CC(C)CN(C[C@@H](O)[C@H](Cc1ccccc1)NCC(=O)N1CCOCC1)S(=O)(=O)c1ccc(C(F)(F)F)cc1	568	127	–
CC(C)CN(C[C@@H](O)[C@H](Cc1ccccc1)NC(=O)OCCN1CCOCC1)S(=O)(=O)c1ccc(N)cc1	3.85	0.86	–
CC(C)CN(C[C@@H](O)[C@H](Cc1ccccc1)NCCN1CCOCC1)S(=O)(=O)c1ccc(N)cc1	429	96.2	–
CC(C)CN(C[C@@H](O)[C@H](Cc1ccccc1)NC(=O)N1CCOCC1)S(=O)(=O)c1ccc(C(F)(F)F)cc1	75	16.8	–
COc1ccc(S(=O)(=O)N(CC(C)C)C[C@@H](O)[C@H](Cc2ccccc2)NC(=O)CN2CCOCC2)cc1	33.2	7.44	–
CC(C)CN(C[C@@H](O)[C@H](Cc1ccccc1)NC(=O)N1CCOCC1)S(=O)(=O)c1ccc(N)cc1	32.5	7.28	–
CC(C)CN(C[C@@H](O)[C@H](Cc1ccccc1)NC(=O)CN1CCO[C@H](C)C1)S(=O)(=O)c1ccc(C(F)(F)F)cc1	272	61	–
CC(C)CN(C[C@@H](O)[C@H](Cc1ccccc1)NC(=O)CN1CCOCC1)S(=O)(=O)c1ccc(N)cc1	37.7	8.45	–
CC(C)CN(C[C@@H](O)[C@H](Cc1ccccc1)NC(=O)CN1CCOCC1)S(=O)(=O)c1ccc(C(F)(F)F)cc1	44.2	9.9	–
COc1ccc(S(=O)(=O)N(CC(C)C)C[C@@H](O)[C@H](Cc2ccccc2)NCC(=O)N2CCOCC2)cc1	1330	298	–
CC(C)CN(C[C@@H](O)[C@H](Cc1ccccc1)NC(=O)O[C@H]1CO[C@H]2OCC[C@H]21)S(=O)(=O)c1ccc(N)cc1	–	–	inhibition at 10 µM [3]: 100%; EC50 [5]: 240 nM; EC50 [6]: 3.9 nM
COc1ccc(S(=O)(=O)N(CC(C)C)C[C@@H](O)[C@H](Cc2ccccc2)NCCN2CCOCC2)cc1	1110	250	–
CC(C)CN(C[C@@H](O)[C@H](Cc1ccccc1)NC[C@H](O)CN1CCOCC1)S(=O)(=O)c1ccc(C(F)(F)F)cc1	1500	651	–
CC(C)CN(C[C@@H](O)[C@H](Cc1ccccc1)NC[C@H](O)CN1CCOCC1)S(=O)(=O)c1ccc(N)cc1	881	197	–

From ChEMBL document CHEMBL4616700, “Novel HIV-1 Protease Inhibitors with Morpholine as the P2 Ligand to Enhance Activity against DRV-Resistant Variants” (ACS Med Chem Lett, 2020)
